Data reported in PubChem BioAssay (NCI).
Where “and” joins values, the source holds several entries; their conditions need not be identical. Equal entries are not always repeated.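 Cultured in 96-well plates, cells were exposed to test compound for 48 hours across five concentrations. The concentration for 50% growth inhibition is given as GI50. TGI marks complete inhibition of growth.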

Experiments:
Assay in all cases: NCI tumour cell line growth inhibition, 48 h
HCC-2998 colon = system: HCC-2998 colon
TK-10 renal = system: TK-10 renal
HT29 colon = system: HT29 colon
MALME-3M melanoma = system: MALME-3M melanoma
DU-145 prostate = system: DU-145 prostate
COLO 205 colon = system: COLO 205 colon
PC-3 prostate = system: PC-3 prostate
ACHN renal = system: ACHN renal
SR leukemia = system: SR leukemia
CCRF-CEM leukemia = system: CCRF-CEM leukemia

| Compound | GI50 (HCC-2998 colon) [µM] | TGI (HCC-2998 colon) | TGI (TK-10 renal) | GI50 (HT29 colon) | TGI (HT29 colon) | GI50 (MALME-3M melanoma) | TGI (MALME-3M melanoma) | GI50 (DU-145 prostate) | TGI (DU-145 prostate) [µM] | GI50 (COLO 205 colon) | TGI (COLO 205 colon) | GI50 (PC-3 prostate) | TGI (PC-3 prostate) [µM] | GI50 (ACHN renal) [µM] | TGI (ACHN renal) [µM] | GI50 (SR leukemia) [µM] | TGI (SR leukemia) [µM] | GI50 (CCRF-CEM leukemia) | TGI (CCRF-CEM leukemia) | GI50 (TK-10 renal) [µM] |
| --- | --- | --- | --- | --- | --- | --- | --- | --- | --- | --- | --- | --- | --- | --- | --- | --- | --- | --- | --- | --- |
| C/C(=N\Nc1cc(C)c2ccccc2n1)c1ccccn1 | < 0.0445 | 2.15 µM | 2.76 µM | 0.0408 µM | 1.8 µM | 0.155 µM | 1.49 µM | 0.107 µM | 12.4 | < 0.0188 µM | 1.98 µM | 0.0821 µM | 4.5 | < 0.0374 | 1.14 | < 0.0293 | 2.39 | < 0.0269 µM | 0.571 µM |  |
| CCOC(=O)NC1C2CC(=O)OC(O2)C1OC(C)=O (stereo not drawn) |  | > 100 µM | > 100 µM |  | > 100 µM |  | > 100 µM | > 100 µM | > 100 |  | > 100 µM | > 100 µM | > 100 |  | > 100 |  | > 100 |  | > 100 µM |  |
| COc1cc2c(cc1OC)-c1ccc3cc4c(cc3c1N(CCCn1ccnc1)C2)OCO4 | 10.9 | 24.4 µM | 60.5 µM | 3.22 µM | 30.7 µM | 2.68 µM | 10.7 µM | 3.21 µM | 34.5 | 1.49 µM | 6.12 µM | 4.18 µM | 36.7 | 10.1 | 65.9 | 0.579 | > 100 | 0.62 µM | 21.4 µM | 25.2 |
| C=C(CN1CCN(c2cccc(C(F)(F)F)n2)CC1)c1ccc(C(=O)Nc2ccccc2N)cc1 | 9.63 | > 100 µM | > 100 µM and 35.4 µM | 0.565 µM and 0.341 µM |  | 1.06 µM and 0.338 µM | > 100 µM and 28.2 µM | 1.46 µM and 0.634 µM | > 100 | 3.34 µM and 0.907 µM |  | 0.42 µM and 0.484 µM | > 100 |  | > 100 | > 39.1 | > 100 | 0.278 µM | > 100 µM |  |
| Cc1ccc2c(-c3ccnc(Nc4ccccc4)n3)c(-c3ccc(F)cc3)nn2n1 | 7.03 | 22.6 µM | 10.8 µM | 2.34 µM | > 19.2 µM | 13.9 µM | > 25 µM | 7.59 µM | > 25 | 11.1 µM | > 25 µM | 9.97 µM | > 25 | 1.26 | > 25 | 11.7 | > 25 | 5.81 µM | > 25 µM | 1.62 |
| CNC(=O)c1ccc(N2C(=S)N(c3ccc(C#N)c(C(F)(F)F)c3)C(=O)C2(C)C)cc1F | > 40.7 | > 65.8 µM | > 100 µM | 43.3 µM | > 100 µM | 20.9 µM | > 82.1 µM | 53.9 µM | > 100 | 32 µM | > 57.7 µM | 30.3 µM | > 100 | 22.4 | > 62.9 | 17.9 | > 100 | 30 µM | > 100 µM | > 54.8 |
| C[C@]12CC[C@H](OC3OC(CO)C(O)C(O)C3O)C[C@H]1CC[C@@H]1[C@@H]2CC[C@]2(C)[C@@H](C3=CCOC3=O)CC[C@]12O (stereo partly drawn) | > 100 | 50 µM and > 100 µM | > 100 µM | > 100 µM | 50 µM and > 100 µM | 23 µM and 16.2 µM | 20.4 µM and > 100 µM | 70.6 µM | > 100 | > 100 µM | 50 µM and > 100 µM |  | > 100 | 0.183 | > 100 |  | > 100 | 23.4 µM and > 100 µM | 50 µM and > 100 µM |  |
| C[C@]12CC[C@@H]3c4cc(-c5ccc(F)cc5)c(O)cc4CC[C@H]3[C@@H]1CC[C@@H]2O | 16.8 | 38.2 µM | 21.7 µM | 6.54 µM | 20.2 µM | 10.1 µM | 22 µM | 12.5 µM | 25 | 4.83 µM | 23.9 µM | 4.63 µM | 21.8 | 5.86 | 18.9 | 4.75 | 24.5 | 6.93 µM | 29.3 µM |  |
| Cc1ccc(Cc2cnc(NC(=O)/C=C/c3cccc(C)c3)s2)cc1 | 0.296 | > 37.1 µM | 6.81 µM | 0.135 µM | 5.85 µM | 0.19 µM | 51.9 µM | 0.395 µM | > 66.3 | 0.355 µM | > 100 µM | 0.154 µM | > 100 | 0.278 | 4.66 | 0.0449 | 2.23 | 0.0893 µM | > 53.6 µM | 0.919 |
| COc1cc2ncn(-c3cc(O[C@@H](C)c4ccccc4Cl)c(C(N)=O)s3)c2cc1OC | 2.55 | > 25 µM | > 23.1 µM | 0.107 µM | > 25 µM | 13.7 µM | > 25 µM | 0.727 µM | > 25 | 0.444 µM | > 25 µM | 2.55 µM | > 25 | 2.89 | > 25 | 0.701 | > 18.8 | 0.107 µM | > 10.5 µM | 4.14 |
| C[C@@H](O)[C@H](NC(=O)N[C@@H](CC(N)=O)c1nc([C@@H](N)CO)no1)C(=O)O | > 100 | > 100 µM | > 100 µM | > 100 µM | > 100 µM | > 100 µM | > 100 µM | > 100 µM | > 100 | > 100 µM | > 100 µM | > 100 µM | > 100 | > 100 | > 100 | > 100 | > 100 | > 100 µM | > 100 µM | > 100 |
